Data set [1] deals with OVCAR-3 cells. Briefly: In vitro cytotoxicity (anti-proliferative effect) without β-glucuronidase, sulforhodamine B protein dye stain. The data set is classed as cell-based. The following applies: for ratio IC50 prodrug/IC50 paclitaxel: OVCAR-3, without β-glucuronidase; for cytotoxicity compared with parent drug paclitaxel: in words. On the procedure: (§1) The anti-proliferative effects of paclitaxel, and the prodrugs 1, 2a and 2b on OVCAR-3 cells were determined by measuring the cell growth with a protein dye stain (H. J. Haisma et al. Cell Biophysics 1994, 24/25, 185-192). Cells were seeded in 96-well tissue culture plates (5000 cells/well) and 24 h later (pro)drugs 1, 2a, 2b or 3 were added with or without excess human β-glucuronidase. After 72 hours the cells were fixed with 25% trichloroacetic acid, stained with 0.4% sulforhodamine B, washed with 1% acetic acid and air-dried. The bound dye was then solubilized with 10 mM Tris and the absorbance read at 492 nm. The antiproliferative effects were expressed as IC50 values, which are the (pro)drug concentrations that gave 50% growth inhibition when compared to control cell growth.

The nature of data set [2]: Stability assay in PBS buffer pH 6.8, 37° C., HPLC. Format: physicochemical. The following applies: for ratio of prodrug/paclitaxel: PBS pH=6.8, 37° C., HPLC peak areas; for stability in PBS buffer: in words, PBS pH=6.8. On the procedure:
The prodrugs in examples 1 and 2b were all stable in PBS buffer (PBS buffer=NaCl (8 g/L), KCl (0.2 g/L), Na2 HPO4 (1.15 g/L), KH2 PO4 (0.2 g/L), pH=6.8, see example 4 and 5).
To 3.0 mL PBS buffer, pH=6.8, was added 0.37 mg of prodrug 2b (0.30 μmol). The mixture was placed in a water bath of 37° C. […] The ratios are based on peak areas.
In 1.1 mL PBS buffer, pH=6.8, was dissolved 0.13 mg of prodrug 2a (0.11 μmol) and placed in a water bath of 37° C. […] The ratios are based on peak areas.

In data set [3] the test system is OVCAR-3 cells. Briefly: In vitro cytotoxicity (anti-proliferative effect) with excess human β-glucuronidase, sulforhodamine B protein dye stain. Format: cell-based. The following applies: OVCAR-3, with β-glucuronidase. On the procedure: as §1
Data set [4] concerns the target T1, human β-glucuronidase (Homo sapiens, UniProt P08236).
T1 construct: lysosomal homotetramer
T1 sequence (P08236 23-651): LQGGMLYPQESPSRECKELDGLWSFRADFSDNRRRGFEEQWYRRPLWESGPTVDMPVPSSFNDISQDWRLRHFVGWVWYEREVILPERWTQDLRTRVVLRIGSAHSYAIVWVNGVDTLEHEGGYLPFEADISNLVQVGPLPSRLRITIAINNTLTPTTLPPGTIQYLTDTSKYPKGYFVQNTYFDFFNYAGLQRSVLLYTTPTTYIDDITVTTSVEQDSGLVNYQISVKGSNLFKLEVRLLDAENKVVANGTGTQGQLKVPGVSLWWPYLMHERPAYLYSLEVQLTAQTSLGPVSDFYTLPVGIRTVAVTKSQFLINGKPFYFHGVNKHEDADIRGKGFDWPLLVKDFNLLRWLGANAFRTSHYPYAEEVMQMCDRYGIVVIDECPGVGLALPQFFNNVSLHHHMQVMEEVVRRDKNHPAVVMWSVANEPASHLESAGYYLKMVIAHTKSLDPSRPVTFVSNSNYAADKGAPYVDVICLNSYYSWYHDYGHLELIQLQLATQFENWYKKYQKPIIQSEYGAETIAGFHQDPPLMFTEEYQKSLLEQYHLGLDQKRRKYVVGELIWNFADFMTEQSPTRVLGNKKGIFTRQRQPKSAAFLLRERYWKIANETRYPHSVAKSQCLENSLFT
Briefly: Enzyme catalyzed hydrolysis of prodrug by human β-glucuronidase, HPLC. Format: biochemical. The note with it: for ratio prodrug/paclitaxel: 37° C., pH=6.8, HPLC peak areas; for intermediates (spacer attached to paclitaxel, compounds 5 and 7b) during enzyme catalyzed hydrolysis / enzymatic hydrolysis rate / paclitaxel found in experiment without human β-glucuronidase: in words; for enzymatic hydrolysis rate: appropriate enzyme; for paclitaxel found in experiment without human β-glucuronidase: no enzyme, PBS pH=6.8, 37° C., up to 180 min; for half life of hydrolysis by β-glucuronidase: prodrug 100 μM, enzyme 10 μg mL^-1. On the procedure:
To 140 μL PBS buffer (pH=6.8) was added 20 μL of a 1 mM solution of prodrug 1 in PBS buffer (pH=6.8) and 20 μL of 1% bovine serum albumin also in PBS buffer (pH=6.8). After incubation of the mixture for 10 min. at 37° C. 20 μL of a solution of 0.1 mg mL^-1 human β-glucuronidase (H. J. Haisma, Hybridoma, in press) was added. Directly after the addition of the enzyme to the reaction mixture an aliquot of 10 μL was taken and diluted with 90 μL cold acetonitrile (-20° C.) in order to stop the enzyme reaction. The reaction mixture was incubated for 3 hr at 37° C. and samples were taken at 15, 30, 45, 60, 90, 120 and 180 min. All samples were quenched by dilution with cold acetonitrile (-20° C.). […] In the later experiment also samples of 10 μL were taken at 0, 15, 30, 45, 60, 90, 120 and 180 min and were also diluted with cold acetonitrile (-20° C.). The samples of both experiments were analyzed by HPLC (C^18 reverse phase column, eluent: gradient of 10% acetonitrile in water to 90% acetonitrile in water, detection at 226 nm). The ratio of prodrug 1 to paclitaxel as shown in table 1 is determined by measuring the peak areas of the appropriate signals. […] All experiments were carried out in duplo.
20 μL of 1 mM solution of prodrug 2b in PBS buffer (pH=6.8) and 20 μL 1% bovine serum albumin also in PBS buffer (pH=6.8) was added to 140 μL PBS buffer (pH=6.8). Subsequently, the mixture was incubated for 10 min. at 37° C. whereafter 20 μL of a solution of 0.1 mg mL^-1 human β-glucuronidase (H. J. Haisma, Hybridoma, in press) was added and the reaction mixture was incubated at 37° C. Samples were taken and quenched at 0, 15, 30, 45, 60, 90, 120 and 180 min as described above for the enzyme assay of prodrug 1. In order to determine that the hydrolysis was caused by β-glucuronidase, another experiment was carried out without addition of β-glucuronidase as described above in example 7. The samples were analyzed as described for example 7 (vide supra). The ratios presented in table 2, are based on peak areas of the appropriate signals. […] All experiment were carried out in duplo.

The nature of data set [5]: Solubility in water. The data set is classed as physicochemical. The note with it: for solubility in water compared with parent drug paclitaxel: in words; for solubility: water, read-out: Concentrations reached in water. The method, then: Concentrations of 10 mM in water and higher were reached whereas the solubility of paclitaxel is lower as […] in water (K. C. Nicolaou et al., Nature, 1993, 364, 464-466).

The conditions of data set [6]: K. C. Nicolaou et al., Nature, 1993, 364, 464-466; cited from earlier work.

Counter-ions that a name gives are not always drawn.

On to `CC(=O)O[C@H]1C(=O)[C@@]2(C)[C@H]([C@H](OC(=O)c3ccccc3)[C@]3(O)C[C@H](OC(=O)[C@H](OC(=O)CC(C)(C)CNC(=O)O[C@@H]4O[C@H](C(=O)O)[C@@H](O)[C@H](O)[C@H]4O)[C@@H](NC(=O)c4ccccc4)c4ccccc4)C(C)=C1C3(C)C)[C@]1(OC(C)=O)CO[C@@H]1C[C@@H]2O` [Prodrug 1, N-[paclitaxel-2'-O-3,3-dimethyl butanoate]-O-[β-glucuronyl] carbamate sodium salt], for which, in data set [1], the “ratio IC50 prodrug/IC50 paclitaxel” value came to 90. Besides, in data set [1], the “cytotoxicity compared with parent drug paclitaxel” value is “less cytotoxic as the parent drug”. Also, the ratio of prodrug/paclitaxel in data set [2] (48 hr) is on record as 92/8. In addition, the “stability in PBS buffer” value in data set [2] is listed as “stable”. Further, the “ratio IC50 activated prodrug with β-glucronidase/IC50 paclitaxel” value (“ratio IC50 activated prodrug” below) in data set [3] stood at 3. In addition, the ratio prodrug/paclitaxel in data set [4] (0 min) was 99/1; in data set [4] (15 min), 95/5; in data set [4] (30 min), 93/7; in data set [4] (45 min), 87/13; in data set [4] (60 min) it was 78/22; in data set [4] (90 min) it was 61/39. Moreover, the ratio prodrug/paclitaxel in data set [4] (120 min) is on record as 43/57; in data set [4] (180 min), 33/67. The “intermediates (spacer attached to paclitaxel, compounds 5 and 7b) during enzyme catalyzed hydrolysis” value in data set [4] is given as “no intermediates”. The enzymatic hydrolysis rate result in data set [4] is reported as “quite fast hydrolyzing rates”. Besides, the “paclitaxel found in experiment without human β-glucuronidase” value in data set [4] is recorded as “no paclitaxel was found”. Besides, the “half life of hydrolysis by β-glucuronidase” value in data set [4] is “about 2 hr”. In data set [5], the “solubility in water compared with parent drug paclitaxel” value is on record as “far more better soluble in water as the parent drug paclitaxel”. Also, the solubility in data set [5] is at least 10 mM.
Consider `CC(=O)O[C@H]1C(=O)[C@@]2(C)[C@H]([C@H](OC(=O)c3ccccc3)[C@]3(O)C[C@H](OC(=O)[C@H](OC(=O)Cc4ccccc4NC(=O)O[C@@H]4O[C@H](C(=O)O)[C@@H](O)[C@H](O)[C@H]4O)[C@@H](NC(=O)c4ccccc4)c4ccccc4)C(C)=C1C3(C)C)[C@]1(OC(C)=O)CO[C@@H]1C[C@@H]2O` [Prodrug 2a, N-[paclitaxel-2'-O-(2-amino) phenylacetate]-O-[β-glucuronyl] carbamate sodium salt], for which, in data set [1], the “ratio IC50 prodrug/IC50 paclitaxel” value amounted to 1 and the “cytotoxicity compared with parent drug paclitaxel” value was “about as cytotoxic as paclitaxel”. Moreover, the ratio of prodrug/paclitaxel in data set [2] (3 hr) is recorded as 55/45. Moreover, the ratio of prodrug/paclitaxel in data set [2] (22 hr) is reported as 1/99. The “stability in PBS buffer” value in data set [2] was “not stable”. For the same compound, in data set [2] (pbs buffer, pH 6.8, read-out: half time of decomposition to paclitaxel (converted)), the half-life is 3 h. The “ratio IC50 activated prodrug” value in data set [3] is reported as 1. For the same compound, in data set [5], the “solubility in water compared with parent drug paclitaxel” value is recorded as “far more better soluble in water as the parent drug paclitaxel” and the solubility was at least 10 mM.
For the compound `CC(=O)O[C@H]1C(=O)[C@@]2(C)[C@H]([C@H](OC(=O)c3ccccc3)[C@]3(O)C[C@H](OC(=O)[C@H](OC(=O)CCc4ccccc4NC(=O)O[C@@H]4O[C@H](C(=O)O)[C@@H](O)[C@H](O)[C@H]4O)[C@@H](NC(=O)c4ccccc4)c4ccccc4)C(C)=C1C3(C)C)[C@]1(OC(C)=O)CO[C@@H]1C[C@@H]2O` [Prodrug 2b, N-[paclitaxel-2'-O-(2-amino)phenylpropionate]-O-[β-glucuronyl] carbamate sodium salt], the “ratio IC50 prodrug/IC50 paclitaxel” value in data set [1] came out at 122. Also, the “cytotoxicity compared with parent drug paclitaxel” value in data set [1] is “less cytotoxic as the parent drug”. The ratio of prodrug/paclitaxel in data set [2] (48 hr) was 92/8; in data set [2] (66 hr) it was 89/11. Moreover, the “stability in PBS buffer” value in data set [2] is “stable”. In data set [3], the “ratio IC50 activated prodrug” value is on record as 5. The ratio prodrug/paclitaxel in data set [4] (0 min) is listed as 99/1; in data set [4] (15 min) it was 87/13; in data set [4] (30 min), 74/26; in data set [4] (45 min), 55/45; in data set [4] (60 min) it was 41/59; in data set [4] (90 min), 24/76. Further, the ratio prodrug/paclitaxel in data set [4] (120 min) is on record as 20/80; in data set [4] (180 min) it was 15/85. In data set [4], the “intermediates (spacer attached to paclitaxel, compounds 5 and 7b) during enzyme catalyzed hydrolysis” value is on record as “no intermediates”. For the same compound, the enzymatic hydrolysis rate entry in data set [4] is “quite fast hydrolyzing rates”. For the same compound, the “paclitaxel found in experiment without human β-glucuronidase” value in data set [4] is “no paclitaxel was found”. Further, in data set [4], the “half life of hydrolysis by β-glucuronidase” value is recorded as “about 45 min”. In addition, the “solubility in water compared with parent drug paclitaxel” value in data set [5] was “far more better soluble in water as the parent drug paclitaxel”. Moreover, the solubility in data set [5] was at least 10 mM.
In the case of `CC(=O)O[C@H]1C(=O)[C@@]2(C)[C@H]([C@H](OC(=O)c3ccccc3)[C@]3(O)C[C@H](OC(=O)[C@H](O)[C@@H](NC(=O)c4ccccc4)c4ccccc4)C(C)=C1C3(C)C)[C@]1(OC(C)=O)CO[C@@H]1C[C@@H]2O` [paclitaxel], the solubility in water in data set [6] is below 5 nM.

Values taken from patent US5760072A, “Paclitaxel prodrugs, method for preparation as well as their use in selective chemotherapy” (Pharmachemie B.V., priority 1995, dated 1998).
